One compound from ChEMBL document CHEMBL3639115, “Benzimidazole inhibitors of leukotriene production” (2014) can be followed below.

As usually defined, the IC50 is the concentration needed to halve the response being measured.

The target in the experiment is T1, Arachidonate 5-lipoxygenase-activating protein (Homo sapiens, UniProt P20292).
T1 sequence (P20292 whole entry): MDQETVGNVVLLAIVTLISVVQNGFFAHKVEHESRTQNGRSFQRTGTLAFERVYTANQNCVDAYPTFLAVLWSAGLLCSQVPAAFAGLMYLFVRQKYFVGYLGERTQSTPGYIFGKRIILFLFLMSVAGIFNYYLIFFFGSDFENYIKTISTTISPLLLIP
The experiment can be described thus: Scintillation Proximity Assay: Compounds are assessed for the ability to bind to FLAP in a binding assay that measures compound-specific displacement of an iodinated (125I) FLAP inhibitor via a Scintillation Proximity Assay format (adapted from S. Charleson et al., Mol. Pharmacol., 1992, 41, 873-879).Cell pellets produced from sf9 insect cells expressing recombinant human FLAP protein are resuspended in buffer A [15 mM Tris-HCl (pH 7.5), 2 mM MgCl2, 0.3 mM EDTA, 1 mM PMSF]. The cells are lysed with a Dounce homogenizer and the material is centrifuged at 10,000xg for 10 minutes. The supernatant is then collected and centrifuged at 100,000xg for 60 minutes. To prepare membrane protein for an assay, an aliquot of the 100,000xg pellet is resuspended in 1 ml of buffer A, Dounce homogenized, and finally subjected to polytron mixing (30 seconds). Membrane protein (25 ul, 5 ug) is mixed with WGA SPA beads (Amersham) and stirred for 1 h. To an assay plate (Perkin Elmer FlexiPlate) is added 25 ul of test compound. (SPA uses beads or plates that emit light when radiolabelled molecules are held near them.)

For `CC(C)(C)n1c(-c2ccccc2C(N)=O)nc2cc(-c3cnc(N)nc3)ccc21`, the IC50 was 35.4 nM.
